# According to US12102617B2, “Antimicrobial compositions containing a synergistic combination of activated creatinine and an imidazole antifungal agent” (Board of Regents of the University of Nebraska, priority 2016, dated 2024):
# Where a name gives a salt, the structure may show the parent alone. Read-outs that look alike come from different tables or passages of the source.
# Tests used:
# Penicillium spp. 1 = experiment: Comparative antifungal testing on LB agar plate wells, mold fungi (Example 4); type: cell-based; conditions: 0.1% (w/v) solutions in wells of LB agar plate, after 48 hours
# Description: (§1) Two species of penicillium, Penicillium spp. 1 and Penicillium spp. 2, were isolated from contaminates that grew on laboratory plates and were grown in LB broth, shaking for three days. One hundred microliters of the fungal broth were added to an LB agar plate and evenly spread on the surface. Test samples containing the following aqueous solutions were prepared: • 0.1% (w/v) clotrimazole (3.4 mM); • 0.1% (w/v) clotrimazole in 200 mM creatinine ethyl ester hydrochloride (“CEE”) (3.4 mM in clotrimazole; 1.7 mol % clotrimazole in the clotrimazole-creatinine mixture); • 0.1% (w/v) ketoconazole (5.3 mM); • 0.1% (w/v) fluconazole (30 mM). […] (2009) Biochem. Biophys. Res. Comm. 388(2):252-255.
# Penicillium spp. 2 = experiment: as above; type: cell-based; conditions: 0.1% (w/v) solutions in wells of LB agar plate, after 48 hours
# Description: as §1
# [1] = test system: Staphylococcus aureus (Gram positive; laboratory strain 29213); experiment: MIC determination, two-fold dilutions in 96-well plates (Example 2); type: cell-based; conditions: for antibacterial efficacy against S. aureas (Example 2, FIG. 2): comparative photographs; for MIC: S. aureus, single agent alone, 24 hours at 37° C.
# Description: (§2) The antibacterial activity of the clotrimazole/activated creatinine solutions prepared as described in Example 1 was evaluated with respect to Staphylococcus aureus (Gram positive; laboratory strain 29213), E. coli (Gram negative; laboratory strain 35150), and a multiple drug resistant strain of Enterococcus faecalis (Gram positive). The S. aureus and E. coli were purchased from the American Type Culture Collection, and the E. faecalis was a local veterinary clinic isolate. The minimum inhibitory concentration (“MIC”) for each solution was determined against each of the three bacteria after incubation for 24 hours at 37° C. using two-fold dilutions and flat-bottom 96-well plates.
# [2] = test system: multiple drug resistant strain of Enterococcus faecalis (Gram positive); experiment: as above; type: cell-based; conditions: E. faecalis (multiple drug resistant), single agent alone, 24 hours at 37° C.
# Description: as §2
# [3] = test system: E. coli (Gram negative; laboratory strain 35150); experiment: microbe, parasite or virus in culture; type: cell-based; conditions: single agent alone, 24 hours at 37° C.
# Description: as §2
# [4] = test system: Candida albicans yeast (ATCC1023); experiment: Antifungal MIC evaluation (Example 3); type: cell-based; conditions: C. albicans yeast, single agent alone, 24 hours at 37° C.
# Description: (§3) The MIC for each solution was determined against the fungi after incubation for 24 hours at 37° C. using two-fold dilutions and flat-bottom 96-well plates.
# [5] = test system: Saccharomyces spp. yeast (baker's yeast); experiment: Antifungal MIC evaluation (Example 3); type: cell-based; conditions: single agent alone, 24 hours at 37° C.
# Description: as §3
# [6] = test system: gram negative and gram positive bacteria; conditions: both gram negative and gram positive bacteria, including antibiotic resistant organisms; cited from earlier work
structure (smiles),measurement,setting,value
CC(=O)N1CCN(c2ccc(OCC3COC(Cn4ccnc4)(c4ccc(Cl)cc4Cl)O3)cc2)CC1 (stereo not drawn) [ketoconazole],inhibition of fungal growth,Penicillium spp. 1,do not
same,inhibition of fungal growth,Penicillium spp. 2,do not
OC(Cn1cncn1)(Cn1cncn1)c1ccc(F)cc1F [fluconazole],inhibition of fungal growth,Penicillium spp. 1,do not
same,inhibition of fungal growth,Penicillium spp. 2,do not
"CN1CC(=O)N=C1N [activated creatinine, creatinine hydrochloride]","antibacterial efficacy against S. aureas (Example 2, FIG. 2)",[1],ineffective
same,MIC,"[1]; Staphylococcus aureus, read-out: MIC",10.9 mg/mL
same,MIC,"[2]; Enterococcus faecalis, read-out: MIC",21.8 mg/mL
same,MIC,"[3]; Escherichia coli, read-out: MIC",21.9 mg/mL
same,MIC,[4],no impact on fungal growth
same,MIC,[5],no impact on fungal growth
same,inhibitory activity against bacteria,[6],broad spectrum inhibitory activity
"Clc1ccccc1C(c1ccccc1)(c1ccccc1)n1ccnc1 [Clotrimazole, clotrimazole]","antibacterial efficacy against S. aureas (Example 2, FIG. 2)",[1],ineffective
same,MIC,[1],no impact on bacterial growth
same,MIC,[2],no impact on bacterial growth
same,MIC,[3],no impact on bacterial growth
same,MIC,"[4]; Candida albicans, ATCC1023, read-out: MIC",6 mg/mL
same,MIC,[5]; read-out: MIC,7.5 mg/mL
same,inhibition of fungal growth,Penicillium spp. 1,does not exhibit antifungal activity
same,inhibition of fungal growth,Penicillium spp. 1; listed as CLO,do not
same,inhibition of fungal growth,Penicillium spp. 2,does not exhibit antifungal activity
same,inhibition of fungal growth,Penicillium spp. 2; listed as CLO,do not
